Patent US8222262B2, “Indazolyl derivatives useful as potassium channel modulating agents” (Neurosearch A/S, priority 2006, dated 2012)

How the values were obtained:
[1] = molecular target: T1, hSK3 channels (Homo sapiens, UniProt Q9UGI6); test: Whole-cell patch-clamp recording of ionic current through SK channels (subtype 3) in HEK293 cells expressing hSK3; assay type: cell-based; details: baseline current at -75 mV, free Ca2+ 0.3-0.4 μM, room temperature
T1 construct: expressed in transfected cells; host or cells: HEK293
Procedure: The ionic current through small-conductance Ca^2+-activated K^+ channels (SK channels, subtype 3) is recorded using the whole-cell configuration of the patch-clamp technique.
HEK293 tissue culture cells expressing hSK3 channels were grown in DMEM (Dulbecco's Modified Eagle Medium) supplemented with 10% FCS (foetal calf serum) at 37° C. in 5% CO2. At 60-80% confluency, cells were harvested by trypsin treatment and seeded on cover slips.
Experiments are carried out a patch-clamp set-up. Cells plated on coverslips are placed in a 15 μl perfusion chamber (flowrate ˜1 ml/min) mounted on an inverted microscope placed on a vibration-free table in a grounded Faraday cage. All experiments are performed at room temperature (20-22° C.). […] Data are stored directly on the hard-disk and analysed by IGOR software (Wavemetrics, Lake Oswega, Oreg., USA).
The whole-cell configuration of the patch-clamp technique is applied. […] Cell capacitance is electronically compensated and the resistance between the pipette and the cell interior (the series resistance, Rs) is measured and compensated for. […]
The intracellular (pipette) solution contained: 154 mM KCl, 10 mM HEPES, 10 mM EGTA. Concentrations of CaCl2 and MgCl2 needed to obtain the desired free concentrations of Ca^2+ (0.3-0.4 μM, Mg^2+ always 1 mM) were calculated by EqCal software (Cambridge, UK) and added. […]

melting point | SC100 (Stimulating Concentration required for increasing the baseline current by 100%) [1] | Structure (SMILES)
224.7 to 226.7 °C | 0.08 µM | Cc1cc(Nc2ccc(Cl)cc2)nc(-n2cc3ccccc3n2)n1 [Compound A1, (4-Chloro-phenyl)-(2-indazol-2-yl-6-methyl-pyrimidin-4-yl)-amine]
278.1 to 281.4 °C |  | c1ccc2c(c1)cnn2-c1nc(NC2CCCCC2)c2ccccc2n1 [Compound A3, Cyclohexyl-(2-indazol-1-yl-quinazolin-4-yl)-amine]
249 to 252 °C |  | Clc1ccc(Nc2cncc(-n3cc4ccccc4n3)n2)cc1 [Compound D1, (4-Chloro-phenyl)-(6-indazol-2-yl-pyrazin-2-yl)-amine]
